Article PMC9225989 (Signal Transduction and Targeted Therapy, 2022)

Molecular target: T1, cannabinoid receptor 1 (CB1R, hCB1R) (Homo sapiens, UniProt P21554)
T1 construct: gene CNR1; purified human CB1R (hCB1R) protein that is close to its full-length (473 amino acids)
Test: biochemical
Assay type: binding

T1 sequence (P21554 whole entry): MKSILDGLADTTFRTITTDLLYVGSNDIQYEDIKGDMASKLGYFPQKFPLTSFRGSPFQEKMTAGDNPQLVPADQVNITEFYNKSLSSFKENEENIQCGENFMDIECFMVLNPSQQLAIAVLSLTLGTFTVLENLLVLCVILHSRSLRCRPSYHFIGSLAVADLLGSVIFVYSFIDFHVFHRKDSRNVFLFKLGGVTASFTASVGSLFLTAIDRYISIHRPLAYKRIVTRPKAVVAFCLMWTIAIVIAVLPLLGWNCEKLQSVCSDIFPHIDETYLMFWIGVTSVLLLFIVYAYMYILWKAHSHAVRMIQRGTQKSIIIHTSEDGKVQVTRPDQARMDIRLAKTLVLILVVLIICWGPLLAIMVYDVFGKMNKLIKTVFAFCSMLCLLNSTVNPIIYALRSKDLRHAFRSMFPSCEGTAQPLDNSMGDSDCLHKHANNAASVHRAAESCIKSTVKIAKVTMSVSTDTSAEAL

| Compound | Kd [nM] |
| --- | --- |
| Cc1cc2c(s1)Nc1ccccc1N=C2N1CCN(C)CC1 [Olz, olanzapine] | 2.53 |
| CN1CCN(C2=Nc3cc(Cl)ccc3Nc3ccccc32)CC1 [Clz, clozapine] | 2.65 |
